Laboratory results from publication PMC10254444, “Targeting Myeloperoxidase Activity and Neutrophil ROS Production to Modulate Redox Process: Effect of Ellagic Acid and Analogues” (Molecules, 2023).

Assays:
[1] = ABTS radical cation assay
Description: The ABTS assay was based on the method described by Re et al.. For the generation of ABTS^•+ radicals, sodium persulfate (2.45 mM) aqueous solution was mixed with ABTS (7 mM) and incubated overnight in the dark to obtain a dark-colored solution. Stock solution of ABTS^•+ was then diluted by adding pure methanol (100%) to obtain an absorbance of 0.70 (±0.02) at 734 nm at 30 °C. To obtain more repetition, the ABTS assay was performed using a microplate reader (ThermoLabsystem, Finland). An aliquot of 2 µL of the tested compound (EA or analogue) was added to 198 µL of ABTS^•+, and the decrease in absorbance was monitored at 740 nm after 30 min [32]. During this reaction, the blue-green ABTS radical cation is converted back into its colorless neutral form in the presence of the potential antioxidant molecule. A control consisted of 2 µL of DMSO in 198 µL of ABTS^•+ solution. The reducing capacity was determined according to the formula:% inhibition = (Acontrol − ASample) × 100/AControl(1)

[2] = set-up: method as in PMID 19015354; conditions: after intraperitoneal injection; cited from earlier work
[3] = biological target: T1, Horseradish peroxidase (HRP) (Armoracia rusticana, UniProt P00433); test: HRP-catalyzed oxidation of L012 (chemiluminescence); format: biochemical
T1 construct: purchased Merck (Darmstadt, Germany)
T1 sequence (P00433 31-338 limits assumed): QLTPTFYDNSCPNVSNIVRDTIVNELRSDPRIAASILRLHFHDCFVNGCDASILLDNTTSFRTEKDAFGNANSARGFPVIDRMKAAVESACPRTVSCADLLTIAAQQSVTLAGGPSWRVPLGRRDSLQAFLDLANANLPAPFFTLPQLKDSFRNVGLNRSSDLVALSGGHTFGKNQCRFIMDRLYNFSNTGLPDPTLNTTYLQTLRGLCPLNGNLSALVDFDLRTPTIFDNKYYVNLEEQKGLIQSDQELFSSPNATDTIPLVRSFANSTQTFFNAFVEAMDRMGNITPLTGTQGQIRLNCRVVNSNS
Description: […] (HRP) reacts with hydrogen peroxide (H2O2), yielding “compound I (HRP^+.-Fe (IV=O))”, which is a reactive intermediate of HRP that is able to oxidize any potential reducing agent. Briefly, 2 μL of compound or reference molecule (ellagic acid) were incubated in phosphate buffer at pH 7.4 (153 μL, 50 mM) containing 5 μL HRP (100 µg/L), 20 μL L0-12 (10^−3 M), and 20 μL H2O2 (1 mM), and the chemiluminescence was immediately measured using a Fluoroskan Ascent 96-plate reader (ThermoLabsystem, Finland) at 37 °C for 30 min [32, 34]. The analysis was conducted in a 96-well microtiter plate. All the assays were performed in triplicate and repeated at least twice (N = 2; n = 6). The relative activity in terms of inhibition percentage of the tested compound or reference (ellagic acid) was compared to a control in the presence of DMSO taken as a solvent. The inhibition percentage was calculated using a similar formula (Equation (1)) as described above.

Solubility = format: physicochemical
[4] = DPPH radical scavenging assay
Description: The DPPH assay was performed according to the method developed by Brand-Williams et al., though slightly modified. A solution of 1 mM DPPH in absolute methanol was stirred for 40 min. Absorbance of the solution was adjusted to 0.650 ± 0.020 at 517 nm using fresh absolute methanol. For replicates, the DPPH assay was performed using a microplate reader. For this, 2 µL of EA taken as a standard or sample (EA analogue) were mixed with 198 µL of DPPH solution and incubated for 30 min in the dark covered with aluminum foil. When reacting with an antioxidant, the DPPH• radical is converted into DPPH, and its color changes from purple to yellow. The antioxidant effect may be easily evaluated by observing the decrease in visible absorption. The absorbance decrease was monitored at 510 nm for 30 min with a Multiskan Ascent 96-plate reader (ThermoLabsystem, Finland). A control consisted of 2 µL of DMSO in 198 µL of DPPH solution. A similar formula (Equation (1)) was applied to determine the DPPH radical-scavenging activity.

[5] = in mice; cited from earlier work
[6] = biological target: T2, human myeloperoxidase (MPO) (Homo sapiens, UniProt P05164); test: MPO peroxidase activity, classical assay (Amplex Red); format: biochemical; conditions: concentration range 0.01 to 10 µM
T2 construct: purchased Calbiochem Millipore
T2 sequence (P05164 49-745): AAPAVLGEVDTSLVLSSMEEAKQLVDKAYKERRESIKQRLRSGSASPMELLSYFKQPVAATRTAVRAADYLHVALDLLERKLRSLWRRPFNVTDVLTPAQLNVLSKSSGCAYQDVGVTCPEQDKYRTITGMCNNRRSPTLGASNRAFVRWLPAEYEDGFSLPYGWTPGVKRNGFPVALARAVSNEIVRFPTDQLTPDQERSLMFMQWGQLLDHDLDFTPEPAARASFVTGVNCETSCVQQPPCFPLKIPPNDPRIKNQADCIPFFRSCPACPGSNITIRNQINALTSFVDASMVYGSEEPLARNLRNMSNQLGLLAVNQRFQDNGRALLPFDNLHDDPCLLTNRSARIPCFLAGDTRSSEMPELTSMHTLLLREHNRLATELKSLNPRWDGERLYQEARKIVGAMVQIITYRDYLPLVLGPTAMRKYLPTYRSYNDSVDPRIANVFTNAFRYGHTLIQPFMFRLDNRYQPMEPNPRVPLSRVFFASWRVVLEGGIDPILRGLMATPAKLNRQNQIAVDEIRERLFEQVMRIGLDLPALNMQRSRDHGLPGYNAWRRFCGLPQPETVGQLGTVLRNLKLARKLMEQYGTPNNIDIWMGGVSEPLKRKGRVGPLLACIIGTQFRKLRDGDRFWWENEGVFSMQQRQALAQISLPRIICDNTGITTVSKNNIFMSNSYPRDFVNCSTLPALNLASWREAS
Description: (§1) Measurement of the peroxidase activity of MPO was performed by a classical enzymatic assay and by SIEFED assay as described by Nyssen et al.. The MPO solution was prepared with purified human MPO in dilution buffer (PBS 20 mM at pH 7.4 with 5 g/L BSA and 0.1% Tween-20). The solutions of EA or analogue, at final concentrations ranging from 10^−8 M to 10^−5 M, were incubated for 10 min with human MPO at a final concentration of 5 mU/mL before further use. The revelation of MPO activity was performed by monitoring the enzyme-catalyzed oxidation of Amplex Red in the presence of H2O2 (10 μM) and nitrite (4.5 mM) in phosphate buffer at pH 7.4.
After incubation, mixtures containing 100 μL of EA/analogue or vehicle (DMSO) and MPO were loaded into wells of microtiter plates (transparent), and the peroxidase activity was measured by adding 10 μL sodium nitrite solution (4.5 mM, final concentration) and 100 μL of the reactional solution containing 10 µM H2O2 and 40 µM Amplex® Red (AR) in phosphate buffer (50 mM) at pH 7.4. The oxidation of AR into the fluorescent resorufin adduct (λexcitation = 544 nm; λemission = 590 nm) was monitored for 30 min at 37 °C with a fluorescent plate reader (Fluoroskan Ascent, Fisher Scientific, Hampton, NH, USA). To eliminate the possibility of the artifact reactions that might arise from MPO activity or its natural substrate (H2O2), the direct reaction of ellagic acid or an analogue with H2O2 was performed in phosphate buffer (PBS) without the addition of human MPO.

[7] = biological target: T2, human myeloperoxidase (MPO); test: MPO activity by SIEFED assay; format: biochemical
Description: as §1
Samples with MPO and various concentrations of […] were prepared and incubated as with the classical assay. An amount of 100 μL of each mixture (MPO alone or MPO + EA/DMSO) was then loaded into the wells of a SIEFED microtiter plate coated with rabbit polyclonal antibodies (3 μg/mL) against human MPO and incubated for 2 h at 37 °C in darkness. After washing up the wells, the activity of the enzyme captured by the antibodies was measured by adding 10 μL sodium nitrite solution (4.5 mM, final concentration) and 100 μL of a reactional solution containing 10 μM H2O2 and 40 μM Amplex® in phosphate buffer (50 mM) at pH 7.4. The oxidation of Amplex® Red into the fluorescent adduct resorufin (λexcitation = 544 nm; λemission = 590 nm) was monitored for 30 min at 37 °C with a fluorescent plate reader (Fluoroskan Ascent, Fisher Scientific). As for the MPO direct assay, a control assay set as the relative value of MPO activity was performed with purified MPO in the presence of PBS instead of the samples of EA or analogue dissolved in DMSO. In this SIEFED assay, MPO was bonded by the antibodies into the wells, and EA/analogue was discarded in the washing step before starting the measurement of the enzymatic activity. For both MPO assays, the inhibition percentage was calculated using a similar formula (Equation (1)) as described above.

SMILES: O=c1oc2c(O)c(O)cc3c(=O)oc4c(O)c(O)cc1c4c23 [1a, 2,3,7,8-Tetrahydroxy [1]benzopyrano [5,4,3-cde][1]benzopyran-5,10-dione, reference compound]
- IC50 [1]: 6.01 ± 0.26 µM
- curative activity in vivo (in words) [2]: curative activity in vivo
- HRP inhibiting activity (in words) [3]: strong inhibiting activity
- solubility (in words) (Solubility): low hydrosolubility
- IC50 [4]: 5.64 ± 0.47 µM
- oral bioavailability [5]: < 30%

SMILES: O=C(OCCCOC(=O)c1cc(O)c(O)c(O)c1)c1cc(O)c(O)c(O)c1 [compound 2]
- IC50 [1]: 5.5 ± 0.16 µM
- IC50 [3]: 2.28 ± 0.11 µM
- IC50 [4]: 2.86 ± 0.13 µM

SMILES: O=C(OCCCOC(=O)c1cc(O)c(O)c(O)c1)c1cc(O)cc(O)c1 [compound 3, 3-((3,5-dihydroxybenzoyl)oxy)propyl 3,4,5-trihydroxybenzoate]
- MPO inhibition (classical assay) [6]: 98%
- IC50 [1]: 5.52 ± 0.34 µM
- IC50 [3]: 3.19 ± 0.07 µM
- IC50 [4]: 5.78 ± 0.13 µM

SMILES: O=C(OCCOC(=O)c1cc(O)c(O)c(O)c1)c1cc(O)c(O)c(O)c1 [compound 4]
- IC50 [1]: 5.77 ± 0.01 µM
- IC50 [3]: 2.84 µM
- IC50 [4]: 3.36 ± 0.25 µM

SMILES: O=C(OCCCOC(=O)c1cc(O)c(O)c(O)c1)c1ccc(O)c(O)c1 [compound 5, 3-((3,4-dihydroxybenzoyl)oxy)propyl 3,4,5-trihydroxybenzoate]
- IC50 [1]: 5.48 ± 0.23 µM
- IC50 [3]: 3.73 ± 0.21 µM
- IC50 [4]: 4.24 ± 0.36 µM

SMILES: O=C(Nc1ccc(OC(=O)c2cc(O)c(O)c(O)c2)cc1)c1cc(O)c(O)c(O)c1 [compound 7, 4-(3,4,5-trihydroxybenzamido)phenyl 3,4,5-trihydroxybenzoate]
- MPO inhibition (classical assay) [6]: 94%
- MPO activity, SIEFED assay (in words) [7]: superior to ellagic acid
- IC50 [1]: 4.68 ± 0.13 µM
- HRP inhibiting activity (in words) [3]: reduced antioxidant effect
- IC50 [3]: 5.81 ± 0.49 µM
- IC50 [4]: 3.14 ± 0.72 µM

SMILES: O=C(OCCCCOC(=O)c1cc(O)c(O)c(O)c1)c1cc(O)c(O)c(O)c1 [compound 8]
- IC50 [1]: 6.97 ± 0.04 µM
- IC50 [3]: 1.48 ± 1.17 µM
- IC50 [4]: 5.96 ± 0.06 µM

SMILES: O=C(NCCCOC(=O)c1cc(O)c(O)c(O)c1)c1cc(O)c(O)c(O)c1 [compound 9, 3-(3,4,5-trihydroxybenzamido) propyl 3,4,5-trihydroxybenzoate]
- IC50 [1]: 6.34 ± 0.39 µM
- IC50 [3]: 1.81 ± 0.18 µM
- IC50 [4]: 5.82 ± 0.35 µM

SMILES: O=C(Nc1cccc(OC(=O)c2cc(O)c(O)c(O)c2)c1)c1cc(O)c(O)c(O)c1 [compound 10, 3-(3,4,5-trihydroxybenzamido)phenyl 3,4,5-trihydroxybenzoate]
- MPO activity, SIEFED assay (in words) [7]: superior to ellagic acid
- IC50 [1]: 6.22 ± 0.16 µM
- IC50 [3]: 1.02 ± 0.09 µM
- IC50 [4]: 5.27 ± 0.29 µM

SMILES: O=C(NCCCNC(=O)c1cc(O)c(O)c(O)c1)c1cc(O)c(O)c(O)c1 [compound 12]
- IC50 [1]: 5.86 ± 0.18 µM
- HRP inhibiting activity (in words) [3]: very good inhibition
- IC50 [3]: 3.06 ± 0.07 µM
- IC50 [4]: 3.7 ± 0.45 µM

SMILES: O=C(OCCCOC(=O)c1cc(O)c(O)c(O)c1)c1ccccc1 [compound 13, 3-(benzoyloxy)propyl 3,4,5-trihydroxybenzoate]
- IC50 [1]: 6 ± 0.31 µM
- IC50 [3]: 5.46 ± 0.01 µM
- IC50 [4]: 4.91 ± 0.26 µM
